Experimental data from patent US20110196000A1, “Use of succinate dehydrogenase (SDH) inhibitors in the treatment of plant species from the family of the true grasses” (Bayer CropScience AG, priority 2010, published 2011).

Tests used:
Assay type in all cases: in vivo
[1] = system: infection-free wheat plants of the cultivar Passat; experiment: Glasshouse trial: green leaf area by visual scoring; conditions: glasshouse
Method: (§1) In a glasshouse trial under controlled conditions, the effect of bixafen was investigated on the physiology, morphology and abiotic stress tolerance of infection-free wheat plants of the cultivar […] plants were grown in 10-litre containers over a period of 4 months. The substrate used was standard earth type ED 73 (Fröndenberg, Germany)+C-Horizont+Sand (4:2:1). The supply of nutrient to the plants took place by feeding with a 0.2% strength Flory 2 liquid fertilizer solution (from Euflor, Munich) once every two weeks. The plants were supplied with water as required. In each component of the trial, 10 repetitions were carried out. To prevent infestation with powdery mildew, Proquinazid (Talius® was applied once. The incidence of aphids and spider mites was avoided by treatments with Karate®, Bulldock® and Sumicidin®. The products under test were applied to the plants, in the form of sequential spray sequences (BBCH 39 and 59). The spray volume was 300 l of water per hectare. [table] The duration of the green coloration of the leaf area was captured on the basis of regular visual scoring of the fraction of the green leaf area.

[2] = system: infection-free wheat plants of the cultivar Passat; experiment: Glasshouse trial: yield components; conditions: glasshouse, sprays at BBCH 39 and 59
wheat variety Ritmo [3] = experiment: Plot trial: yield components; conditions: sprays at BBCH 39 and 59
wheat variety Ritmo [4] = experiment: Plot trial in Germany: green leaf area by visual scoring; conditions: sprays at BBCH 39 and 59
Method: In Germany a plot trial was set up with the wheat variety Ritmo in order to investigate the effect of bixafen on the physiology, morphology and abiotic stress tolerance of wheat plants under realistic agricultural conditions. The products under test were applied to the plants, in the form of sequential spray sequences (BBCH 39 and 59). The spray volume was 400 l of water per hectare. In each trial component, 5 repetitions were carried out. [table] The duration of green coloration of the leaf area was captured by regular visual scoring of the fraction of green leaf area.

[5] = system: infection-free wheat plants of the cultivar Passat; experiment: Glasshouse trial: size of the flag leaf; conditions: at BBCH 83-85
Method: as §1, with “Morphological parameters measured, additionally, were the length and width, i.e. the size” for “The duration”, “flag leaf. This was greatest with” for “green coloration of”, “succinate dehydrogenase (SDH) inhibitor bixafen, in comparison to” for “leaf area was captured on”, “other comparison fungicides.” for “basis of regular visual scoring of the fraction of the green leaf area.”

[6] = system: infection-free wheat plants of the cultivar Passat; experiment: Glasshouse trial: temperature of ears and leaves as measure of transpiration activity
Method: In a glasshouse trial under controlled conditions, the effect of bixafen was investigated on the physiology, morphology and abiotic stress tolerance of infection-free wheat plants of the cultivar […] plants were grown in 10-litre containers over a period of 4 months. The substrate used was standard earth type ED 73 (Fröndenberg, Germany)+C-Horizont+Sand (4:2:1). The supply of nutrient to the plants took place by feeding with a 0.2% strength Flory 2 liquid fertilizer solution (from Euflor, Munich) once every two weeks. The plants were supplied with water as required. In each component of the trial, 10 repetitions were carried out.

wheat = experiment: Effect on the number of kernels/ear; conditions: 2nd trial; applied at BBCH 39 (prothioconazole 200 g a.i.; bixafen + prothioconazole 75 + 150 g a.i./ha)
wheat variety Ritmo [7] = experiment: Plot trial: chlorophyll content of leaves (pigment extraction method of Ziegler and Ehle)
[8] = 68 days after second fungicide application (so in the source)
[9] = 75 days after second fungicide application (so in the source)
[10] = 82 days after second fungicide application (so in the source)
[11] = 89 days after second fungicide application (so in the source)
[12] = 96 days after second fungicide application (so in the source)
[13] = 103 days after second fungicide application (so in the source)
[14] = 110 days after second fungicide application (so in the source)
[15] = 117 days after second fungicide application (so in the source)
[16] = 7 days after second fungicide application
[17] = 14 days after second fungicide application
[18] = 21 days after second fungicide application
[19] = 28 days after second fungicide application
[20] = 35 days after second fungicide application
[21] = 42 days after second fungicide application

OC(Cc1ccccc1Cl)(Cn1nc[nH]c1=S)C1(Cl)CC1 (stereo not shown) [Prothioconazole]
green leaf area of the flag leaf (F) [1, 8]: 100 % leaf area
green leaf area of the second-from-top leaf (F-1) [1, 8]: 100 % leaf area
green leaf area of the third-from-top leaf (F-2) [1, 8]: 100 % leaf area
green leaf area of the flag leaf (F) [1, 9]: 100 % leaf area
green leaf area of the second-from-top leaf (F-1) [1, 9]: 100 % leaf area
green leaf area of the third-from-top leaf (F-2) [1, 9]: 95 % leaf area
green leaf area of the flag leaf (F) [1, 10]: 100 % leaf area
green leaf area of the second-from-top leaf (F-1) [1, 10]: 95 % leaf area
green leaf area of the third-from-top leaf (F-2) [1, 10]: 83 % leaf area
green leaf area of the flag leaf (F) [1, 11]: 95 % leaf area
green leaf area of the second-from-top leaf (F-1) [1, 11]: 83 % leaf area
green leaf area of the third-from-top leaf (F-2) [1, 11]: 53 % leaf area
green leaf area of the flag leaf (F) [1, 12]: 85 % leaf area
green leaf area of the second-from-top leaf (F-1) [1, 12]: 57 % leaf area
green leaf area of the third-from-top leaf (F-2) [1, 12]: 30 % leaf area
green leaf area of the flag leaf (F) [1, 13]: 62 % leaf area
green leaf area of the second-from-top leaf (F-1) [1, 13]: 30 % leaf area
green leaf area of the third-from-top leaf (F-2) [1, 13]: 17 % leaf area
green leaf area of the flag leaf (F) [1, 14]: 38 % leaf area
green leaf area of the second-from-top leaf (F-1) [1, 14]: 19 % leaf area
green leaf area of the third-from-top leaf (F-2) [1, 14]: 8 % leaf area
green leaf area of the flag leaf (F) [1, 15]: 15 % leaf area
green leaf area of the second-from-top leaf (F-1) [1, 15]: 5 % leaf area
green leaf area of the third-from-top leaf (F-2) [1, 15]: 0 % leaf area
Ears/pot [2]: 43.1
Harvest Index [2]: 27.3%
Kernels/ear [2]: 22.2
Straw [2]: 85.4 g/pot
TKM (thousand-kernel mass) [2]: 33.5 g
Yield [2]: 32.1 g/pot
Ears/m^2 (wheat variety Ritmo [3]): 397
Harvest Index (wheat variety Ritmo [3]): 59.3
Straw (wheat variety Ritmo [3]): 533 g m^−2
TKM (thousand-kernel mass) (wheat variety Ritmo [3]): 46.3 g
Yield (wheat variety Ritmo [3]): 8.1 t ha^−1
green leaf area of the flag leaf (wheat variety Ritmo [4]; [16]): 98.8 % leaf area
green leaf area of the second-from-top leaf (F-1) (wheat variety Ritmo [4]; [16]): 97.8 % leaf area
green leaf area of the third-from-top leaf (F-2) (wheat variety Ritmo [4]; [16]): 96.1 % leaf area
green leaf area of the flag leaf (wheat variety Ritmo [4]; [17]): 98.2 % leaf area
green leaf area of the second-from-top leaf (F-1) (wheat variety Ritmo [4]; [17]): 97.8 % leaf area
green leaf area of the third-from-top leaf (F-2) (wheat variety Ritmo [4]; [17]): 95.9 % leaf area
green leaf area of the flag leaf (wheat variety Ritmo [4]; [18]): 98.1 % leaf area
green leaf area of the second-from-top leaf (F-1) (wheat variety Ritmo [4]; [18]): 96.8 % leaf area
green leaf area of the third-from-top leaf (F-2) (wheat variety Ritmo [4]; [18]): 94.9 % leaf area
green leaf area of the flag leaf (wheat variety Ritmo [4]; [19]): 94.0 % leaf area
green leaf area of the second-from-top leaf (F-1) (wheat variety Ritmo [4]; [19]): 91.2 % leaf area
green leaf area of the third-from-top leaf (F-2) (wheat variety Ritmo [4]; [19]): 83.7 % leaf area
green leaf area of the flag leaf (wheat variety Ritmo [4]; [20]): 58.8 % leaf area
green leaf area of the second-from-top leaf (F-1) (wheat variety Ritmo [4]; [20]): 44.3 % leaf area
green leaf area of the third-from-top leaf (F-2) (wheat variety Ritmo [4]; [20]): 25.3 % leaf area
green leaf area of the flag leaf (wheat variety Ritmo [4]; [21]): 13.8 % leaf area
green leaf area of the second-from-top leaf (F-1) (wheat variety Ritmo [4]; [21]): 4.2 % leaf area
green leaf area of the third-from-top leaf (F-2) (wheat variety Ritmo [4]; [21]): 0 % leaf area
green leaf area of the second-from-top leaf (F-1) (wheat variety Ritmo [4]; 49 days after second fungicide application): 0 % leaf area
Length of the flag leaf [5]: 26.7 cm
Width of the flag leaf [5]: 1.3 cm
Area of the flag leaf ([5]; calculated using the formula A = 0.67 × length × width): 23.26 cm^2
Area [rel.] of the flag leaf ([5]; untreated = 100): 106 rel.
Temperature (as a measure of the transpiration activity) ([6]; BBCH 75, ear): 23.1 °C
Temperature (as a measure of the transpiration activity) ([6]; BBCH 75, leaf): 22.4 °C
Temperature (as a measure of the transpiration activity) ([6]; BBCH 80, ear): 19.5 °C
Temperature (as a measure of the transpiration activity) ([6]; BBCH 80, leaf): 16.6 °C
Temperature (as a measure of the transpiration activity) ([6]; BBCH 85, ear): 24.8 °C
Temperature (as a measure of the transpiration activity) ([6]; BBCH 85, leaf): 23.7 °C
Temperature (as a measure of the transpiration activity) ([6]; BBCH 90, ear): 24.2 °C
Temperature (as a measure of the transpiration activity) ([6]; BBCH 90, lear (so in the source)): 23.1 °C
Kernels/ear (wheat): 30.1
Chlorophyll content (wheat variety Ritmo [7]; BBCH 75 (mature milk), leaf F): 1740 µg/g
Chlorophyll content (wheat variety Ritmo [7]; BBCH 75 (mature milk), leaf F-1): 1637 µg/g
Chlorophyll content (wheat variety Ritmo [7]; BBCH 75 (mature milk), leaf F-2): 1207 µg/g
Chlorophyll content (wheat variety Ritmo [7]; BBCH 85 (mature dough), leaf F): 211 µg/g
Chlorophyll content (wheat variety Ritmo [7]; BBCH 85 (mature dough), leaf F-1): 163 µg/g
Chlorophyll content (wheat variety Ritmo [7]; BBCH 85 (mature dough), leaf F-2): 116 µg/g
